Data from patent US20130090333A1, “BENZOXAZINE DERIVATIVES AS CRAC MODULATORS” (Hoffmann-La Roche Inc., priority 2011, published 2013).

Key:
Type in all cases: cell-based
[1] = tested on: IL-2 production in Jurkat cell (ATCC); experiment: Jurkat IL-2 Production Assay; settings: Homo sapiens, Jurkat cells, 18-20 h incubation, serum/stimulant variant (1% FBS/PHA or 30% FBS/PMA+ionomycin) not given
Description: Jurkat IL-2 Production Assay Cell: Jurkat cell (ATCC) was grown in RPMI 1640 with 10% FBS and 1% penicillin/streptomycin. The cell density was kept at 1.2˜1.8×10^6/mL in culture flask before seeding into culture plate, and the cell density in the plate was 0.5×10^6/2004/well. Culture Media: RPMI 1640 with 1% FBS or 30% FBS for high serum assay. Test Compound: Serial dilution was done in 100% DMSO, and intermediate dilution was done with RPMI 1640 medium with 1% FBS. The DMSO final concentration in culture well was 0.25%. Stimulant: PHA (Sigma#L9017-10MG) was used for the assay with 1% FBS in culture medium, and added after 10 minutes exposure of cell to compound/DMSO. The PHA final concentration in culture well was 5 μg/mL. PMA (Sigma# P-8139 5MG)/Ionomycin (Sigma# I0634-5MG) was used for the assay with 30% FBS in culture medium, and added at same time point as the 1% FBS culture assay. The final concentration of PMA was 50 ng/mL, and Ionomycin final concentration was 500 ng/mL. Incubation: At 37° C. with 5% CO2 and 95% humidity for 18 h˜20 h. IC50: IC50 was calculated with the data analysis software XLfit4, General Pharmacology model 251.

[2] = tested on: T cell IL-2 production in human whole blood; experiment: Human Whole Blood Assay (inhibition of T cell IL-2 production); settings: T-cell, 10 μM Thapsigargin overnight, plasma IL-2 by AlphaLISA, read-out: HWB
Description: Inhibition of T cell IL-2 production CRAC compounds were tested in human whole blood from normal donors. 200 μl of human whole blood was aliquoted into each well of a round bottom 96 well plate. Concentration-response curves were generated for test compounds and CsA (as controls) by performing serial dilutions of the compounds and incubating each concentration in a single well for 30 min (experiment was performed in triplicate). Following incubation, the blood was stimulated with 10 μM Thapsigargin (SIGMA) overnight at 37° C. IL-2 concentrations in the plasma were determined by AlphaLISA IL-2 assay (Perkin Elmer). Data analysis was performed using GraphPad PRISMS.

[3] = tested on: PBMC from healthy donors; experiment: [3H]Thymidine Incorporation (MLR); settings: mixed PBMC responder/stimulator 1:1, 4 days
Description: [3H]Thymidine Incorporation (MLR)
Freshly isolated PBMC from healthy donors were either used as responders, where the cells were pre-treated with various concentrations of inhibitors (as indicated in the figure legends), or stimulators where the cells were pre-treated with 0.05 mg/ml Mitomycin C for 20 min. Stimulator cells were washed twice with RPMI 1640 and mixed with responder PBMCs at a 1:1 ratio, totaling 2×10^5 cells/well in quadruplicate in a 96-well U-bottom tissue culture plates (Falcon). Cells were cultured in complete RPMI 1640 (supplemented with 10% FBS, 1 mM sodium pyruvate, and 100 IU/ml penicillin-streptomycin, 0.01M HEPES and 55 μM β-ME [Invitrogen]) for 4 days at 37° C. in 5% CO2. Cultures were pulsed with 0.5 μCi [3H]-thymidine (PerkinElmer) during the last 6 hrs of culture. Cells were harvested on filter plates using a 96-well plate harvester (PerkinElmer), and the incorporation of [3H]-thymidine was measured as cpm in a Topcount Microplate scintillation counter (PerkinElmer). Stimulator cells alone or responder cells alone were set up in parallel as controls.

CCn1nc(C(F)(F)F)cc1-c1ccc2c(c1)OCC(c1c(F)cccc1F)N2 (stereo not drawn) [Example 6, 3-(2,6-Difluoro-phenyl)-7-(2-ethyl-5-trifluoromethyl-2H-pyrazol-3-yl)-3,4-dihydro-2H-benzo[1,4]oxazine]
IC50 [1]: 20 nM
IC50 [2]: 510 nM
IC50 [3]: 110 nM

CCn1nc(-c2cccnc2)cc1-c1ccc2c(c1)OCC(c1c(F)cccc1F)N2 (stereo not drawn) [Example 7, 3-(2,6-Difluoro-phenyl)-7-(2-ethyl-5-pyridin-3-yl-2H-pyrazol-3-yl)-3,4-dihydro-2H benzo[1,4]oxazine]
IC50 [1]: 70 nM
IC50 [2]: 320 nM
IC50 [3]: 330 nM

Cc1sc(-c2cccnc2)nc1-c1ccc2c(c1)OCC(c1c(F)cccc1F)N2 (stereo not drawn) [Example 12, 3-(2,6-Difluoro-phenyl)-7-(5-methyl-2-pyridin-3-yl-thiazol-4-yl)-3,4-dihydro-2H-benzo[1,4]oxazine]
IC50 [1]: 30 nM
IC50 [2]: 430 nM
IC50 [3]: 190 nM

CCc1sc(-c2cccnc2)nc1-c1ccc2c(c1)OCC(c1c(F)cccc1F)N2 (stereo not drawn) [Example 14, 3-(2,6-Difluoro-phenyl)-7-(5-ethyl-2-pyridin-3-yl-thiazol-4-yl)-3,4-dihydro-2H-benzo[1,4]oxazine]
IC50 [1]: 30 nM
IC50 [2]: 520 nM
IC50 [3]: 100 nM

CCc1sc(-c2cnccn2)nc1-c1ccc2c(c1)OCC(c1c(F)cccc1F)N2 (stereo not drawn) [Example 16, 3-(2,6-difluorophenyl)-7-(5-ethyl-2-(pyrazin-2-yl)thiazol-4-yl)-3,4-dihydro-2H-benzo[b][1,4]oxazine]
IC50 [1]: 20 nM
IC50 [2]: 870 nM
IC50 [3]: 180 nM

CCc1sc(-c2ccncc2)nc1-c1ccc2c(c1)OCC(c1c(F)cccc1F)N2 (stereo not drawn) [Example 17, 3-(2,6-Difluoro-phenyl)-7-(5-ethyl-2-pyridin-4-yl-thiazol-4-yl)-3,4-dihydro-2H-benzo[1,4]oxazine]
IC50 [1]: 20 nM
IC50 [2]: 320 nM
IC50 [3]: 440 nM

CCc1sc(-c2cc(C)on2)nc1-c1ccc2c(c1)OCC(c1c(F)cccc1F)N2 (stereo not drawn) [Example 20, 3-(2,6-difluorophenyl)-7-(5-ethyl-2-(5-methylisoxazol-3-yl)thiazol-4-yl)-3,4-dihydro-2H-benzo[b][1,4]oxazine]
IC50 [1]: 30 nM
IC50 [2]: 360 nM
IC50 [3]: 430 nM
